What follows are molecules tested against T1, PLK1 (Homo sapiens, UniProt P53350) (assay: Biochemical Characterization Assay: HTRF kinase assay, GST-PLK1 phosphorylation of GST-p53). Details: GST-PLK1, GST-p53 substrate.
T1 construct: Full-length, active GST-PLK1 is purified from Sf9 insect cells; made in house; host or cells: Sf9 insect cells
Outline: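 HTRF read-out of p53 phosphorylation: after EDTA stop, anti-phospho-p53 antibody bound 30 min at 37 °C in HEPES pH 7 buffer, with Eu-anti-rabbit/APC-anti-GST detection. Kinase step used full-length Sf9-expressed GST-PLK1 (3 ug/mL) and E. coli GST-p53 substrate, 35 min at 37 °C.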

T1 sequence (P53350 whole entry): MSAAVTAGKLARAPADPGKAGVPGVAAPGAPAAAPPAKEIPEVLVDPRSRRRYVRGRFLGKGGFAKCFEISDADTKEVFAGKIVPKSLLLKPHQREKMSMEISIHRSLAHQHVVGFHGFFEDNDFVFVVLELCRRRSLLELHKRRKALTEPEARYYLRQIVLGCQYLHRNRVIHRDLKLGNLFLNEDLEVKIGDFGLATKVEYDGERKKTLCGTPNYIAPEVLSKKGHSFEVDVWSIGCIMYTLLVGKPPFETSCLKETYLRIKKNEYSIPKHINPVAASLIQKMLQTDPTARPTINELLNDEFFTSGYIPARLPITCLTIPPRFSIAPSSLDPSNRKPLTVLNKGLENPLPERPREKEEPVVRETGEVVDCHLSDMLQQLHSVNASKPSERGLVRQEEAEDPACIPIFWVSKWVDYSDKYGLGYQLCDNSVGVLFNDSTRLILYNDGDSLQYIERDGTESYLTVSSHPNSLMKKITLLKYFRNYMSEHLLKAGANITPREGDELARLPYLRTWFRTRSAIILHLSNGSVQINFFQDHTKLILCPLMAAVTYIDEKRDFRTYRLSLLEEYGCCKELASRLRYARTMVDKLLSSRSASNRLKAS

IC50	Structure (SMILES)
1 to 50 nM	CN1CCC(NC(=O)c2cc(F)c(Nc3ncc4c(n3)N(C3CCCC3)CC(F)(F)C(=O)N4C)cc2F)CC1 [Example I-233, 4-(9-cyclopentyl-7,7-difluoro-5-methyl-6-oxo-6,7,8,9-tetrahydro-5H-pyrimido[4,5-b][1,4]diazepin-2-ylamino)-2,5-difluoro-N-(1-methyl-piperidin-4-yl)-benzamide]
500 to 5000 nM	CCCN1C(=O)C(F)(F)CN(C2CCCC2)c2nc(Nc3ccc(C(=O)NC4CCOCC4)cc3OC)ncc21 [Example I-167, 4-(9-cyclopentyl-7,7-difluoro-6-oxo-5-propyl-6,7,8,9-tetrahydro-5H-pyrimido[4,5-b][1,4]diazepin-2-ylamino)-3-methoxy-N-(tetrahydro-pyran-4-yl)-benzamide]
1 to 50 nM	Cc1cc(C(=O)NC2CCOCC2)ccc1Nc1ncc2c(n1)N(C1CCCC1)CC(F)(F)C(=O)N2C [Example I-187, 4-(9-cyclopentyl-7,7-difluoro-5-methyl-6-oxo-6,7,8,9-tetrahydro-5H-pyrimido[4,5-b][1,4]diazepin-2-ylamino)-3-methyl-N-(tetrahydro-pyran-4-yl)-benzamide]
1 to 50 nM	CN1C(=O)C(F)(F)CN(C2CCCC2)c2nc(Nc3cc(F)c(C(=O)NC4CCNCC4)cc3F)ncc21 [Example I-240, 4-(9-cyclopentyl-7,7-difluoro-5-methyl-6-oxo-6,7,8,9-tetrahydro-5H-pyrimido[4,5-b][1,4]diazepin-2-ylamino)-2,5-difluoro-N-piperidin-4-yl-benzamide]
1 to 50 nM	CCOc1cc(C(N)=O)ccc1Nc1ncc2c(n1)N(C1CCCC1)CC(F)(F)C(=O)N2C [Example I-223, 4-(9-cyclopentyl-7,7-difluoro-5-methyl-6-oxo-6,7,8,9-tetrahydro-5H-pyrimido[4,5-b][1,4]diazepin-2-ylamino)-3-ethoxy-benzamide]
1 to 50 nM	CCc1cc(C(=O)NC2CCNCC2)ccc1Nc1ncc2c(n1)N(C1CCCC1)CC(F)(F)C(=O)N2C [Example I-202, 4-(9-cyclopentyl-7,7-difluoro-5-methyl-6-oxo-6,7,8,9-tetrahydro-5H-pyrimido[4,5-b][1,4]diazepin-2-ylamino)-3-ethyl-N-piperidin-4-yl-benzamide]
1 to 50 nM	COc1cc(C(=O)NCCCN(C)C)ccc1Nc1ncc2c(n1)N(CCCc1ccccc1)CC(F)(F)C(=O)N2C [Example I-285, 4-[7,7-difluoro-5-methyl-6-oxo-9-(3-phenyl-propyl)-6,7,8,9-tetrahydro-5H-pyrimido[4,5-b][1,4]diazepin-2-ylamino]-N-(3-dimethylamino-propyl)-3-methoxy-benzamide]
1 to 50 nM	CN(C)CCCNC(=O)c1cc(F)c(Nc2ncc3c(n2)N(C2CCCC2)CC(F)(F)C(=O)N3C)cc1F [Example I-237, 4-(9-cyclopentyl-7,7-difluoro-5-methyl-6-oxo-6,7,8,9-tetrahydro-5H-pyrimido[4,5-b][1,4]diazepin-2-ylamino)-N-(3-dimethylamino-propyl)-2,5-difluoro-benzamide]
1 to 50 nM	CN1C(=O)C(F)(F)CN(C2CCCCC2)c2nc(Nc3ccc(C(=O)NC4CCNCC4)cc3)ncc21 [Example I-260, 4-(9-cyclohexyl-7,7-difluoro-5-methyl-6-oxo-6,7,8,9-tetrahydro-5H-pyrimido[4,5-b][1,4]diazepin-2-ylamino)-N-piperidin-4-yl-benzamide]
51 to 500 nM	CCc1cc(C(=O)NC2CCN(C(=O)OC(C)(C)C)CC2)ccc1Nc1ncc2c(n1)N(C1CCCC1)CC(F)(F)C(=O)N2C [Example I-201, 4-[4-(9-cyclopentyl-7,7-difluoro-5-methyl-6-oxo-6,7,8,9-tetrahydro-5H-pyrimido[4,5-b][1,4]diazepin-2-ylamino)-3-ethyl-benzoylamino]-piperidine-1-carboxylic acid tert-butyl ester]

Same assay, conditions: GST-PLK1, GST-p53 substrate, ATP

IC50	Structure (SMILES)
1 to 50 nM	COc1cc(C(=O)NC2CCN(c3ccncc3)CC2)ccc1Nc1ncc2c(n1)N(C1CCCC1)CC(F)(F)C(=O)N2C [Example I-62, 4-(9-cyclopentyl-7,7-difluoro-5-methyl-6-oxo-6,7,8,9-tetrahydro-5H-pyrimido[4,5-b][1,4]diazepin-2-ylamino)-3-methoxy-N-(3,4,5,6-tetrahydro-2H-[1,4′]bipyridinyl-4-yl)-benzamide]
51 to 500 nM	CN1C(=O)C(F)(F)CN(C2CCC2)c2nc(Nc3ccc(C(N)=O)cc3)ncc21 [Example I-12, 4-(9-cyclobutyl-7,7-difluoro-5-methyl-6-oxo-6,7,8,9-tetrahydro-5H-pyrimido[4,5-b][1,4]diazepin-2-ylamino)-benzamide]
1 to 50 nM	COc1cc(C(=O)NCCN2CCOCC2)ccc1Nc1ncc2c(n1)N(C1CCCC1)CC(F)(F)C(=O)N2C [Example I-117, 4-(9-cyclopentyl-7,7-difluoro-5-methyl-6-oxo-6,7,8,9-tetrahydro-5H-pyrimido[4,5-b][1,4]diazepin-2-ylamino)-3-methoxy-N-(2-morpholin-4-yl-ethyl)-benzamide]
1 to 50 nM	COc1cc(C(=O)N[C@H]2CCN(C(=O)OC(C)(C)C)C2)ccc1Nc1ncc2c(n1)N(C1CCCC1)CC(F)(F)C(=O)N2C [Example I-82, S-3-[4-(9-cyclopentyl-7,7-difluoro-5-methyl-6-oxo-6,7,8,9-tetrahydro-5H-pyrimido[4,5-b][1,4]diazepin-2-ylamino)-3-methoxy-benzoylamino]-pyrrolidine-1-carboxylic acid tert-butyl ester]
1 to 50 nM	CCN1CCC(NC(=O)c2ccc(Nc3ncc4c(n3)N(C3CCCC3)CC(F)(F)C(=O)N4C)c(OC)c2)CC1 [Example I-67, 4-(9-cyclopentyl-7,7-difluoro-5-methyl-6-oxo-6,7,8,9-tetrahydro-5H-pyrimido[4,5-b][1,4]diazepin-2-ylamino)-N-(1-ethyl-piperidin-4-yl)-3-methoxy-benzamide]
51 to 500 nM	CNC(=O)c1ccc(Nc2ncc3c(n2)N(C2CCC2)CC(F)(F)C(=O)N3C)cc1 [Example I-13, 4-(9-cyclobutyl-7,7-difluoro-5-methyl-6-oxo-6,7,8,9-tetrahydro-5H-pyrimido[4,5-b][1,4]diazepin-2-ylamino)-N-methyl-benzamide]
1 to 50 nM	COc1cc(C(=O)NCCCN(C)C)ccc1Nc1ncc2c(n1)N(C1CCCC1)CC(F)(F)C(=O)N2C [Example I-78, 4-(9-cyclopentyl-7,7-difluoro-5-methyl-6-oxo-6,7,8,9-tetrahydro-5H-pyrimido[4,5-b][1,4]diazepin-2-ylamino)-N-(3-dimethylamino-propyl)-3-methoxy-benzamide]
1 to 50 nM	COc1cc(C(=O)NCCO)ccc1Nc1ncc2c(n1)N(C1CCCC1)CC(F)(F)C(=O)N2C [Example I-30, 4-(9-cyclopentyl-7,7-difluoro-5-methyl-6-oxo-6,7,8,9-tetrahydro-5H-pyrimido[4,5-b][1,4]diazepin-2-ylamino)-N-(2-hydroxy-ethyl)-3-methoxy-benzamide]
500 to 5000 nM	CNC(=O)c1ccc(Nc2ncc3c(n2)N(C2CCCC2)CC(F)(F)C(=O)N3)cc1 [Example I-133, 4-(9-cyclopentyl-7,7-difluoro-6-oxo-6,7,8,9-tetrahydro-5H-pyrimido[4,5-b][1,4]diazepin-2-ylamino)-N-methyl-benzamide]
1 to 50 nM	CN1C(=O)C(F)(F)CN(C2CCC2)c2nc(Nc3ccc(C(=O)NC4CCNCC4)cc3)ncc21 [Example I-14, 4-(9-cyclobutyl-7,7-difluoro-5-methyl-6-oxo-6,7,8,9-tetrahydro-5H-pyrimido[4,5-b][1,4]diazepin-2-ylamino)-N-piperidin-4-yl-benzamide]
1 to 50 nM	COc1cc(C(=O)NCCCn2ccnc2)ccc1Nc1ncc2c(n1)N(C1CCCC1)CC(F)(F)C(=O)N2C [Example I-61, 4-(9-cyclopentyl-7,7-difluoro-5-methyl-6-oxo-6,7,8,9-tetrahydro-5H-pyrimido[4,5-b][1,4]diazepin-2-ylamino)-N-(3-imidazol-1-yl-propyl)-3-methoxy-benzamide]
1 to 50 nM	CNC(=O)c1ccc(Nc2ncc3c(n2)N(C2CCCC2)CC(F)(F)C(=O)N3C)c(OC)c1 [Example I-24, 4-(9-cyclopentyl-7,7-difluoro-5-methyl-6-oxo-6,7,8,9-tetrahydro-5H-pyrimido[4,5-b][1,4]diazepin-2-ylamino)-3-methoxy-N-methyl-benzamide]
1 to 50 nM	COc1cc(C(=O)NCCCN)ccc1Nc1ncc2c(n1)N(C1CCCC1)CC(F)(F)C(=O)N2C [Example I-74, N-(3-amino-propyl)-4-(9-cyclopentyl-7,7-difluoro-5-methyl-6-oxo-6,7,8,9-tetrahydro-5H-pyrimido[4,5-b][1,4]diazepin-2-ylamino)-3-methoxy-benzamide]
1 to 50 nM	COc1cc(C(=O)N[C@H]2CC[C@@H](O)CC2)ccc1Nc1ncc2c(n1)N(C1CCCC1)CC(F)(F)C(=O)N2C [Example I-68, cis-4-(9-cyclopentyl-7,7-difluoro-5-methyl-6-oxo-6,7,8,9-tetrahydro-5H-pyrimido[4,5-b][1,4]diazepin-2-ylamino)-N-(4-hydroxy-cyclohexyl)-3-methoxy-benzamide]
1 to 50 nM	COc1cc(C(N)=O)ccc1Nc1ncc2c(n1)N(C1CCCC1)CC(F)(F)C(=O)N2C [Example I-23, 4-(9-cyclopentyl-7,7-difluoro-5-methyl-6-oxo-6,7,8,9-tetrahydro-5H-pyrimido[4,5-b][1,4]diazepin-2-ylamino)-3-methoxy-benzamide]
1 to 50 nM	COc1cc(C(=O)NCC(C)(C)CN(C)C)ccc1Nc1ncc2c(n1)N(C1CCCC1)CC(F)(F)C(=O)N2C [Example I-60, 4-(9-cyclopentyl-7,7-difluoro-5-methyl-6-oxo-6,7,8,9-tetrahydro-5H-pyrimido[4,5-b][1,4]diazepin-2-ylamino)-N-(3-dimethylamino-2,2-dimethyl-propyl)-3-methoxy-benzamide]
500 to 5000 nM	CCCN1C(=O)C(F)(F)CN(C2CCCC2)c2nc(Nc3ccc(C(=O)NC4CCOCC4)cc3)ncc21 [Example I-149, 4-(9-cyclopentyl-7,7-difluoro-6-oxo-5-propyl-6,7,8,9-tetrahydro-5H-pyrimido[4,5-b][1,4]diazepin-2-ylamino)-N-(tetrahydro-pyran-4-yl)-benzamide]

Reference: patent publication US8003785B2 (Takeda Pharmaceutical Company Limited, priority 2008, dated 2011)
